The target in this test is T1, human S1P1 receptor (Homo sapiens, UniProt P21453).
T1 construct: expressed in transfected cells; membranes used
Nature of the test: GTP γ35S binding assay for S1P1 activity. It is filed as biochemical. The conditions noted are these: membranes of cells stably expressing the S1P1 receptor, agonist potency. As for the experimental part:
Compounds of the invention were tested for S1P1 activity using the GTP γ^35S binding assay. These compounds may be assessed for their ability to activate or block activation of the human S1P1 receptor in cells stably expressing the S1P1 receptor.
GTP γ^35S binding was measured in the medium containing (mM) HEPES 25, pH 7.4, MgCl2 10, NaCl 100, dithitothreitol 0.5, digitonin 0.003%, 0.2 nM GTP γ^35S, and 5 μg membrane protein in a volume of 150 μl. Test compounds were included in the concentration range from 0.08 to 5,000 nM unless indicated otherwise. Membranes were incubated with 100 μM 5′-adenylylimmidodiphosphate for 30 min, and subsequently with 10 μM GDP for 10 min on ice.
Drug solutions and membrane were mixed, and then reactions were initiated by adding GTP γ^35S and continued for 30 min at 25° C. Reaction mixtures were filtered over Whatman GF/B filters under vacuum, and washed three times with 3 mL of ice-cold buffer (HEPES 25, pH7.4, MgCl2 10 and NaCl 100). Filters were dried and mixed with scintillant, and counted for ^35S activity using a β-counter. Agonist-induced GTP γ^35S binding was obtained by subtracting that in the absence of agonist. Binding data were analyzed using a non-linear regression method. In case of antagonist assay, the reaction mixture contained 10 nM S1P in the presence of test antagonist at concentrations ranging from 0.08 to 5000 nM.
(GTPγS is a poorly hydrolysed GTP analogue; its binding reports G protein activation.)

T1 sequence (P21453 whole entry): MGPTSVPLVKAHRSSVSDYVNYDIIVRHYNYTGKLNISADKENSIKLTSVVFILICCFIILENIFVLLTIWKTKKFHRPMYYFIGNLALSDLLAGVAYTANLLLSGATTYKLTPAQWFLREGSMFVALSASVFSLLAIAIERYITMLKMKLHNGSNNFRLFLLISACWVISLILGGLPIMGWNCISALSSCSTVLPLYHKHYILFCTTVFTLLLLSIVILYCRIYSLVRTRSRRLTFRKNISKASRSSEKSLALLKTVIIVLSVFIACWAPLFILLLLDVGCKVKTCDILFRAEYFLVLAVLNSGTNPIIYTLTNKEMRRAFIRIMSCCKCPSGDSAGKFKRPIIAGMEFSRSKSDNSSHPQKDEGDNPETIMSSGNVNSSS

In the case of `Cn1nc(-c2nc(-c3ccc(CNCCC(=O)O)cc3)no2)cc1-c1ccccc1` [Compound 2, 3-({4-[5-(1-methyl-5-phenyl-1H-pyrazol-3-yl)-1,2,4-oxadiazol-3-yl]benzyl}amino)propanoic acid], the concentration for a half-maximal effect (EC50) – broadly, the concentration at which the effect is half-maximal – is 658 nM. Next, `Cn1nc(-c2nc(-c3ccc(CNCCCP(=O)(O)O)cc3)no2)cc1-c1ccccc1` [Compound 1, [3-({4-[5-(1-Methyl-5-phenyl-1H-pyrazol-3-yl)-1,2,4-oxadiazol-3-yl]benzyl}amino)propyl]phosphonic acid]: 32 nM.

(Values after US20140235588A1, “SUBSTITUTED 1H-PYRAZOL-1,2,4-OXADIAZOLE DERIVATIVES AS SPHINGOSINE RECEPTOR MODULATORS” (Allergan, Inc., priority 2013, published 2014).)
